Here are results for five compounds from patent US8318184B2, “MGLU2 agonists” (Eli Lilly and Company, priority 2009, dated 2012).

In data set [1] the test system is Sprague-Dawley rats. Nature of the data set: Reversal of Phencyclidine (PCP)-Induced Hyperlocomotor Activity in Rats. The format is in vivo. The conditions noted are these: Rattus norvegicus, p.o., overnight fasted, 4 hours prior to 5 mg/kg PCP. An excerpt: Administration of NMDA receptor antagonists, such as ketamine or phencyclidine (PCP), produces psychotomimetic-like effects in humans that are similar to those symptoms observed in patients with schizophrenia.
Motor activity is monitored by placing individual male, Sprague-Dawley (Harlan, Indianapolis, Ind.) rats in transparent, plastic shoe-box cages of the dimensions 45×25×20 cm, with 1 cm depth of wood chips as bedding, and a metal grill on top of the cage. Motor monitors (Kinder Scientific) consist of a rectangular rack of 12 photobeams arranged in an 8×4 formation, (or a high density grouping of 22 in a 15×7 pattern) at a height of 5 cm, with a second rack (for measuring rearing behaviors) at a height of 15 cm. The shoe box cage is placed inside of these racks, with the racks on a 3 foot high tabletop in an isolated room. A compound of the present invention is dosed (intraperitoneal route (i.p.), non-prodrug) within a range of 0.3-10 mg/kg, 30 minutes prior to a 5 mg/kg challenge dose of phencyclidine (PCP). A compound of the present invention is dosed (oral route, prodrug) within a range of 0.3-30 mg/kg, in overnight fasted rats, 4 hours prior to a 5 mg/kg challenge dose of PCP. On the test day, rats are placed in the test cage and allowed to acclimate for 30 minutes prior to PCP challenge; rats are monitored for an additional 60 minutes following PCP administration.
Data analysis and ED50 calculations are conducted using GraphPad Prism (San Diego, Calif. USA). Power analyses have determined that 8-10 rats per group are needed to have appropriate statistical power for detecting treatment differences (power=0.8). A one-way analysis of variance (ANOVA) with a post-hoc Dunnett's multiple comparison test is conducted on the total 60 minute locomotor activity. ED50 calculations are performed using non-linear regression curve fitting on percent reversal transformed data for each dose.

A further data set deals with T1, hPepT1 (Homo sapiens, UniProt P46059).
T1 construct: expressed in transfected cells; host or cells: HeLa cells (ATCC), transient transfection with FuGene6
T1 sequence (P46059 1-708): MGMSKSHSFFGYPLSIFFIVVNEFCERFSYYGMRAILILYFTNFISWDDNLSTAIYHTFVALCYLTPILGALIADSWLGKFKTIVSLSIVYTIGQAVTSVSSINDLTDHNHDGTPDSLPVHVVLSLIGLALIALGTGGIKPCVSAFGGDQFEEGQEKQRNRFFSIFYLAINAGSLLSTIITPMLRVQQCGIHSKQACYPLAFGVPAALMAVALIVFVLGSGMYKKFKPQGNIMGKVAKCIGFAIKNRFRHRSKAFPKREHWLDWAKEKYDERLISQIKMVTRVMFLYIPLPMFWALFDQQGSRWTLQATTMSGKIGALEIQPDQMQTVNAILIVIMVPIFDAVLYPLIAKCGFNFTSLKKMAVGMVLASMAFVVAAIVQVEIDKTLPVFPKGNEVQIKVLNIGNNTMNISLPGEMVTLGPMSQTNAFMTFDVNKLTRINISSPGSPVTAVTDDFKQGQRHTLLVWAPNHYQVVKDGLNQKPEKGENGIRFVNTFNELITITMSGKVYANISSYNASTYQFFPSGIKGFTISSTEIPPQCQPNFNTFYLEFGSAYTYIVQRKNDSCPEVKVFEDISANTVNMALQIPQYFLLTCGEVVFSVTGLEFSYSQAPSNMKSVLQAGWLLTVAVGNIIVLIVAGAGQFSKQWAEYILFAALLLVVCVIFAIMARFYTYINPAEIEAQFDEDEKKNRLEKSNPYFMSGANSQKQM
Nature of the data set: In Vitro PepT1 GlySar Inhibition Screen and IC50 Determination. The conditions noted are these: for inhibition at 5000 µM: 5 mM, pH 6.0, PepT1 transiently transfected HeLa cells, read-out: hPepT1 [3H]Gly-Sar uptake inhibition at 5 mM. The format is cell-based. How it is done:
PepT1 assays are established to examine the ability of the amino acid prodrug compounds to interact with the intestinal absorption transporter PepT1.
HeLa cells, […], (American Type Culture Collection) are grown in Hyclone Medium (Invitrogen, Cat# SH30243) containing 10% fetal bovine serum (FBS), 0.1 mM non essential amino acids (NEAA), and 100 units/mL penicillin with 100 μg/mL streptomycin at 37° C. in a 5% CO2 humidified atmosphere. The cell line is used for up to 40 passages and then discarded. Frozen cells in 1 ml vials are thawed in water bath for 1-2 minutes and added to 5 mL of cell medium at 37° C. Each of the T-flasks is provided with 8.5 mL of the fresh medium and 1.5 mL of the cell stock. Cells are passaged twice during a week. This is achieved by rinsing the flasks with 10 mL of phosphate buffered saline-ethylene diaminetetra acetic acid (PBS-EDTA), adding 2 mL of trypsin for 2-5 minutes, to detach the cells, and adding 8 mL of fresh medium to inhibit further activity of trypsin. Each new flask receives a combination of 8.5 mL of fresh medium and 1.5 mL of cell stock, in order to obtain 1:6 cell dilution. Cells are incubated at 37° C., until ready for the uptake study.
Cells that are 70-80% confluent in the T-flasks are plated 1 day prior to the transfection procedure. The flask with the cell stock is treated with PBS-EDTA and trypsin to detach the cells, and transfection medium is used from this point. Transfection medium consists of Dulbecco's Modified Eagle Medium (DMEM)+NEAA. To each well, 0.5 mL of the cell mixture is added (1.3×10^5 is the desired cell concentration) and the cells are incubated at 37° C. overnight. Twenty four hours before the assay, cells are transfected with PEPT1. Transfection mixture is prepared by mixing 600 μL of serum free transfection medium, 18 μL of FuGene6 (Roche Diagnostics), and 11 μg of the PepT1 DNA. The transfection reagent-DNA complex is incubated for 20 minutes and 24 μL of the reagent-DNA complex is added to each well.
J. Pharm. Exper Ther. 310:437-445). […] Uptake media consists of 140 mM NaCl, 5.4 mM KCl, 1.8 mM CaCl2, 0.8 mM MgSO4, 5 mM Glucose, 25 mM tris(hydroxymethyl)aminomethane buffer (TRIS). The solution is then brought to pH 6.0 using 2-(N-morpholino)ethanesulfonic acid. The incubation volume is 500 μL and is performed at room temperature for 3 minutes. To stop the uptake at the conclusion of the incubation time, the uptake media is aspirated off of the cell monolayer and 500 μL of ice cold PBS added to the well. The cells are washed 3 times with 500 μL of room temperature PBS without Ca^+2 and Mg^+2. The cells are then lysed with 300 μL of 1% Triton X100 H2O solution. […] A no inhibitor control is established and the percent inhibition of each prodrug is calculated with respect to this control.
The incubation and sampling procedures are exactly the same as the PepT1 screen described above. […]

The conditions of data set [2]: 1 h, 10 µM, pH 7.4.
Method: Frozen human duodenum intestinal homogenates (1:2 tissue:buffer ratio using 100 mM Tris Phosphate buffer, pH 7.4) are obtained from Celsius In Vitro Technologies (Baltimore, Md.) that were both phenylmethylsulphonylfluoride (PMSF) and EDTA free.
Each lot of human duodenum is obtained from a single donor and the intestine is scraped and the sections are frozen separate. All original tissue collections are performed at 4° C. and immediately frozen at −70° C. Human intestinal homogenates are thawed and diluted to a final protein concentration of 0.5 mg/mL in 100 mM PBS buffer, pH 7.4 immediately prior to the incubations.
Incubations are conducted in 96-well plates and all prodrug compounds are run in duplicate on each day. Stock prodrug compound solutions are prepared in water at a concentration of 1 mM. A 200 μL aliquot of 0.5 mg/mL intestinal homogenate and 196 μL of 100 mM PBS buffer are placed in a 96-well plate in a 37° C. water bath. Using a 96-well pipettor, 4 μL of the 1 mM prodrug compound solution is transferred into the homogenate. Immediately after addition of the prodrug compound (time zero) and after 1 hour incubation, 50 μL samples of the incubation mixture are removed using an automated disposable simultaneous 96 well pipettor and added directly to 200 μL of methanol quench solution containing 100 ng/mL of Internal Standard. The samples are then centrifuged at 3500 rpm for 5 minutes at 10° C. The supernatant (200 μL) is transferred to a final 96 well PCR plate and sealed for analysis by LC/MS/MS.
Concentrations of hydrolyzed compounds of the present invention in the incubation mixtures are determined using LC/MS/MS detection on a Sciex API 4000 quadrapole mass spectrometer with Analyst version 1.4.2, TurboIonSpray, positive ionization, and Selected Reaction Monitoring (SRM). A Waters Atlantis® T3 (20×2.1 mm, 5 μM) HPLC column is used at ambient temperature with a flow rate of 1.0 mL/min and a mobile phase gradient from 0.1% mobile phase A to 99% mobile phase A. Mobile phase A is 1000:5 water:heptafluorobuteric acid and mobile phase B is 1:1 methanol:glacial acetic acid.
Concentrations of hydrolyzed compounds of the present invention in the intestinal incubation mixtures are determined from standard curves prepared by replicate two-fold dilution starting at 10 μM in 100 mM PBS pH 7.4 and subsequently quenched with methanol-internal standard solution identical to the samples. Averages and standard deviations are calculated using Microsoft® Office Excel® 2007. Amount of hydrolysis is determined as a molar percentage of compound formed relative to prodrug compound concentration added. […] Final values are then normalized relative to the formation of Internal Compound Drug A.
The subject of the next data set is NIH-Swiss mice. Nature of the data set: Forced Swim Test in mice. The format is in vivo, mouse. To be noted: positive control over multiple studies. On the procedure: (§1) In this assay, mechanisms with purported antidepressant-like activity decrease immobility in a brief inescapable forced swim episode.
The forced-swim test is conducted with both mice (male, NIH-Swiss mice, 20-25 g, Harlan Sprague-Dawley, Indianapolis, Ind.) and rats (male, Sprague-Dawley rats, 250-350 g, Harlan Sprague-Dawley, Indianapolis, Ind.). Mice are placed in clear plastic cylinders (diameter 10 cm; height: 25 cm) filled to 6 cm with 22-25° C. water for six min. The duration of immobility is recorded during the last 4 min of a six-minute trial. Rats are treated similarly, albeit in clear plastic cylinders of larger dimensions (diameter: 18 cm; height: 40 cm) filled with water (22-25° C.) to a depth of 16 cm for 15 min. Additionally, mice receive a single forced swim exposure; rats receive two, 5-min sessions separated by 24 hours (data is recorded only on Day 2). […] Imipramine is used as a positive control for these studies. […] Compounds are in a clear solution. The amount of time spent immobile (defined as movements only necessary to keep the subject's head above water) is the dependent measure and recorded by an observer blinded to the drug treatment of the subjects. Data are analyzed by post-hoc Dunnett's test with alpha level set at 0.05. The mouse version of the forced swim test is most commonly used.

Data set [3] concerns Sprague-Dawley rats. Nature of the data set: Forced Swim Test in rats. The data set is classed as in vivo, rat. The conditions noted are these: 30 mg/kg. On the procedure: as §1
The forced-swim test is conducted with both mice (male, NIH-Swiss mice, 20-25 g, Harlan Sprague-Dawley, Indianapolis, Ind.) and rats (male, Sprague-Dawley rats, 250-350 g, Harlan Sprague-Dawley, Indianapolis, Ind.). Mice are placed in clear plastic cylinders (diameter 10 cm; height: 25 cm) filled to 6 cm with 22-25° C. water for six min. The duration of immobility is recorded during the last 4 min of a six-minute trial. Rats are treated similarly, albeit in clear plastic cylinders of larger dimensions (diameter: 18 cm; height: 40 cm) filled with water (22-25° C.) to a depth of 16 cm for 15 min. Additionally, mice receive a single forced swim exposure; rats receive two, 5-min sessions separated by 24 hours (data is recorded only on Day 2). The compound of Example 1 is tested in mice using intraperitoneal dosing (1, 3, or 10 mg/kg), 60 min prior to testing. […] Example 2 is administered 5 min following the first forced swim exposure and 120 min prior to the test session on Day 2. Imipramine is used as a positive control for these studies. Compounds are formulated in a water vehicle, with minimal NaOH being added to Example 1 and Example 2. Compounds are in a clear solution. The amount of time spent immobile (defined as movements only necessary to keep the subject's head above water) is the dependent measure and recorded by an observer blinded to the drug treatment of the subjects. Data are analyzed by post-hoc Dunnett's test with alpha level set at 0.05. The mouse version of the forced swim test is most commonly used. An ED60 value (60% of the amount of immobility relative to vehicle controls) is calculated to estimate potency of the test compounds.

What is called ED50 is the dose that gives a 50% effect, or the effect in half of the subjects. What is called inhibition is the share of the control response that was lost under treatment. The IC50 is the point on the concentration scale where inhibition reaches its midpoint. Regarding `CSCC[C@H](N)C(=O)N[C@@]1(C(=O)O)C[C@@H](Sc2nnc[nH]2)[C@H]2[C@H](C(=O)O)[C@H]21.Cl` [Example 3, (1R,2S,4R,5R,6R)-2-[[(2S)-2-Amino-4-methylsulfanyl-butanoyl]amino]-4-(4H-1,2,4-triazol-3-ylsulfanyl)bicyclo[3.1.0]hexane-2,6-dicarboxylic acid hydrochloride], the ED50 with Sprague-Dawley rats [1] is 5.46 mg/kg. In addition, on hPepT1, the inhibition at 5000 µM was found to be 51%. Besides, the IC50 at hPepT1 (0.0625 to 25 mM, PepT1 transfected HeLa cells, read-out: hPepT1 [3H]Gly-Sar uptake inhibition IC50) turned out to be 5.36 mM. For the same compound, the “human intestinal hydrolysis relative to Internal Prodrug Compound A” value in data set [2] is listed as 53%.

Consider `CC(C)C[C@H](N)C(=O)N[C@@]1(C(=O)O)C[C@@H](Sc2nnc[nH]2)[C@H]2[C@H](C(=O)O)[C@H]21.Cl` [Example 4, (1R,2S,4R,5R,6R)-2-[[(2S)-2-Amino-4-methyl-pentanoyl]amino]-4-(4H-1,2,4-triazol-3-ylsulfanyl)bicyclo[3.1.0]hexane-2,6-dicarboxylic acid hydrochloride], for which, on hPepT1, the inhibition at 5000 µM is 32%. The “human intestinal hydrolysis relative to Internal Prodrug Compound A” value in data set [2] stood at 45%.

With `Cl.NCC(=O)N[C@@]1(C(=O)O)C[C@@H](Sc2nnc[nH]2)[C@H]2[C@H](C(=O)O)[C@H]21` [Example 5, (1R,2S,4R,5R,6R)-2-[(2-Aminoacetyl)amino]-4-(4H-1,2,4-triazol-3-ylsulfanyl)bicyclo[3.1.0]hexane-2,6-dicarboxylic acid hydrochloride], at hPepT1, the inhibition at 5000 µM is 44%. Also, the “human intestinal hydrolysis relative to Internal Prodrug Compound A” value in data set [2] stood at 35%.

Regarding `N[C@@]1(C(=O)OCc2ccccc2)C[C@@H](Sc2nnc[nH]2)[C@H]2[C@H](C(=O)OCc3ccccc3)[C@H]21` [Example 6, Dibenzyl (1R,2S,4R,5R,6R)-2-amino-4-(4H-1,2,4-triazol-3-ylsulfanyl)bicyclo[3.1.0]hexane-2,6-dicarboxylate], the “human intestinal hydrolysis relative to Internal Prodrug Compound A” value in data set [2] stood at 2%.

Regarding `CN(C)CCCN1c2ccccc2CCc2ccccc21` [imipramine, reference compound], in the data set with NIH-Swiss mice, the ED60 was 8.6 ± 1.2 mg/kg and the “effect, % of vehicle immobility levels” value is reported as 39±1.2%. Further, the “immobility as % of vehicle controls” value with Sprague-Dawley rats [3] is recorded as 70%.
